Results published in patent US6740664B2, “Methods for treating otic and ophthalmic infections” (Alcon, Inc., priority 1998, dated 2004).
In brackets after ≈: the same amount, converted by molar mass. Like-named read-outs stand apart in the source and are kept apart here.

Experiments:
[1] = system: H. influenzae/β-lactamase positive; assay: MIC90 against bacteria associated with otic, ophthalmic and nasal infections; type: cell-based
Source text: (§1) The concentrations of the antibiotics of formula (I) in the compositions of the present invention will vary depending on the intended use of the compositions (e.g., treatment of existing infections or prevention of post-surgical infections), and the relative antimicrobial activity of the specific antibiotic selected. The antimicrobial activity of antibiotics is generally expressed as the minimum concentration required to inhibit the growth of a specified pathogen. This concentration is also referred to as the “minimum inhibitory concentration” or “MIC”. The term “MIC90” refers to the minimum concentration of antibiotic required to inhibit the growth of ninety percent (90%) of the strains of a species. The concentration of an antibiotic required to totally kill a specified bacteria is referred to as the “minimum bactericidal concentration” or “MBC”.

[2] = system: H influenzae/β-lactamase negative; assay: as above; type: cell-based
Source text: as §1

P. aeruginosa = assay: as above; type: cell-based
Source text: as §1

[3] = system: S. epidermidis/methicillin sensitive; assay: as above; type: cell-based
Source text: as §1

[4] = system: S. pneumoniae/penicillin sensitive; assay: as above; type: cell-based
Source text: as §1

[5] = system: S. aureus/methicillin sensitive; assay: as above; type: cell-based
Source text: as §1

[6] = system: S. aureus/quinolone resistant; assay: as above; type: cell-based
Source text: as §1

[7] = system: S. aureus/methicillin resistant; assay: as above; type: cell-based
Source text: as §1

[8] = system: S. epidermidis/methicillin resistant; assay: as above; type: cell-based
Source text: as §1

[9] = system: S. pneumoniae/penicillin resistant; assay: as above; type: cell-based
Source text: as §1

Microbacterium alconae = assay: In vitro MIC by agar and broth dilution methods (NCCLS M7-A4), clinical isolates; type: cell-based
Procedure: (§2) The activity levels were determined as MIC (minimum inhibitory concentration) values. In order to compare the activity of the compounds of the present invention to other antibiotics, MIC values for representatives quinolones, aminoglycosides, β-lactams and other types of antibiotics were also determined. […] The MCC numbers (e.g., “MCC 10647”) represent separate clinical isolates of the two Microbacterium species tested.

Microbacterium otitidis = assay: as above; type: cell-based
Procedure: as §2

M. alconae = assay: MIC90 against bacteria associated with otic, ophthalmic and nasal infections; type: cell-based, Microbacterium alconae
Source text: as §1

M. otitidis = assay: as above; type: cell-based, Microbacterium otitidis
Source text: as §1

[10] = Haemophilus influenzae, read-out: MIC90
[11] = Pseudomonas aeruginosa, read-out: MIC90
[12] = Staphylococcus epidermidis, read-out: MIC90
[13] = Streptococcus pneumoniae, read-out: MIC90
[14] = Staphylococcus aureus, read-out: MIC90
[15] = Microbacterium alconae clinical isolate MCC 11316
[16] = Microbacterium alconae clinical isolate MCC 11558
[17] = Microbacterium alconae clinical isolate MCC 11639
[18] = Microbacterium alconae clinical isolate MCC 11653
[19] = Microbacterium alconae clinical isolate MCC 11699
[20] = Microbacterium otitidis clinical isolate MCC 10647
[21] = Microbacterium otitidis clinical isolate MCC 10810
[22] = Microbacterium otitidis clinical isolate MCC 10990
[23] = Microbacterium otitidis clinical isolate MCC 11495
[24] = Microbacterium otitidis clinical isolate MCC 11676

For COc1c(N2CCNC(C)C2)c(F)cc2c(=O)c(C(=O)O)cn(C3CC3)c12 (centres unmarked) [Gatifloxacin], the MIC90 [1, 10] was 0.06 µg/mL (≈ 0.16 µM), the MIC90 [2, 10] was 0.06 µg/mL (≈ 0.16 µM) and the MIC90 (P. aeruginosa; [11]) was 2 µg/mL (≈ 5.33 µM). The MIC90 [3, 12] was 0.5 µg/mL (≈ 1.33 µM), the MIC90 [4, 13] was 0.25 µg/mL (≈ 0.666 µM) and the MIC90 [5, 14] was 0.25 µg/mL (≈ 0.666 µM). The MIC90 [6, 14] was 8 µg/mL (≈ 21.3 µM), the MIC90 [7, 14] was 8 µg/mL (≈ 21.3 µM) and the MIC90 [8, 12] was 4 µg/mL (≈ 10.7 µM). The MIC90 [9, 13] was 0.25 µg/mL (≈ 0.666 µM).
With N[C@@H]1[C@H]2CN(c3nc4c(cc3F)c(=O)c(C(=O)O)cn4-c3ccc(F)cc3F)C[C@@H]12 [Trovafloxacin] the MIC90 [1, 10] was 0.03 µg/mL (≈ 0.0721 µM), the MIC90 [2, 10] was 0.03 µg/mL (≈ 0.0721 µM) and the MIC90 (P. aeruginosa; [11]) was 2 µg/mL (≈ 4.8 µM). It also gave an MIC90 [3, 12] of 0.06 µg/mL (≈ 0.144 µM), an MIC90 [4, 13] of 0.25 µg/mL (≈ 0.6 µM) and an MIC90 [5, 14] of 0.03 µg/mL (≈ 0.0721 µM). It also gave an MIC90 [6, 14] of 4 µg/mL (≈ 9.61 µM), an MIC90 [7, 14] of 2 µg/mL (≈ 4.8 µM) and an MIC90 [8, 12] of 4 µg/mL (≈ 9.61 µM). For the same compound, the MIC90 [9, 13] was 0.25 µg/mL (≈ 0.6 µM).
For Gentamicin, the “minimum inhibitory concentration (MIC)” value (Microbacterium alconae; [15]) was 2.0 micrograms per milliliter, the “minimum inhibitory concentration (MIC)” value (Microbacterium alconae; [16]) was 2.0 micrograms per milliliter and the “minimum inhibitory concentration (MIC)” value (Microbacterium alconae; [17]) was 2.0 micrograms per milliliter. For the same compound, the “minimum inhibitory concentration (MIC)” value (Microbacterium alconae; [18]) was 2.0 micrograms per milliliter, the “minimum inhibitory concentration (MIC)” value (Microbacterium alconae; [19]) was 2.0 micrograms per milliliter and the “minimum inhibitory concentration (MIC)” value (Microbacterium otitidis; [20]) was 8.0 micrograms per milliliter. For the same compound, the “minimum inhibitory concentration (MIC)” value (Microbacterium otitidis; [21]) was 4.0 micrograms per milliliter, the “minimum inhibitory concentration (MIC)” value (Microbacterium otitidis; [22]) was 4.0 micrograms per milliliter and the “minimum inhibitory concentration (MIC)” value (Microbacterium otitidis; [23]) was 16 micrograms per milliliter. The “minimum inhibitory concentration (MIC)” value (Microbacterium otitidis; [24]) was 4.0 micrograms per milliliter.
Work on Grepafloxacin yielded an MIC90 [1] of 0.008 micrograms per milliliter, an MIC90 [2] of 0.008 micrograms per milliliter and an MIC90 (P. aeruginosa) of 8.0 micrograms per milliliter. For the same compound, the MIC90 [3] was 0.13 micrograms per milliliter, the MIC90 [4] was 0.25 micrograms per milliliter and the MIC90 [5] was 0.13 micrograms per milliliter. It also gave an MIC90 [6] of 0.13 micrograms per milliliter, an MIC90 [7] of 0.13 micrograms per milliliter and an MIC90 [8] of 0.13 micrograms per milliliter. For the same compound, the MIC90 [9] was 0.25 micrograms per milliliter.
Moxifloxacin was tested, and the MIC90 (M. alconae) was 0.25 micrograms per milliliter, the MIC90 [1] was 0.06 micrograms per milliliter and the MIC90 [2] was 0.06 micrograms per milliliter. For the same compound, the MIC90 (P. aeruginosa) was 8.0 micrograms per milliliter, the MIC90 [3] was 0.25 micrograms per milliliter and the MIC90 [4] was 0.25 micrograms per milliliter. For the same compound, the MIC90 [5] was 0.13 micrograms per milliliter, the MIC90 [6] was 4.0 micrograms per milliliter and the MIC90 [7] was 4.0 micrograms per milliliter. For the same compound, the MIC90 [8] was 4.0 micrograms per milliliter, the MIC90 [9] was 0.25 micrograms per milliliter and the MIC90 (M. otitidis) was 2.0 micrograms per milliliter.
With Neomycin the “minimum inhibitory concentration (MIC)” value (Microbacterium alconae; [15]) was 1.0 micrograms per milliliter, the “minimum inhibitory concentration (MIC)” value (Microbacterium alconae; [16]) was 1.0 micrograms per milliliter and the “minimum inhibitory concentration (MIC)” value (Microbacterium alconae; [17]) was 1.0 micrograms per milliliter. For the same compound, the “minimum inhibitory concentration (MIC)” value (Microbacterium alconae; [18]) was 1.0 micrograms per milliliter, the “minimum inhibitory concentration (MIC)” value (Microbacterium alconae; [19]) was 1.0 micrograms per milliliter and the “minimum inhibitory concentration (MIC)” value (Microbacterium otitidis; [20]) was 8.0 micrograms per milliliter. For the same compound, the “minimum inhibitory concentration (MIC)” value (Microbacterium otitidis; [21]) was 2.0 micrograms per milliliter, the “minimum inhibitory concentration (MIC)” value (Microbacterium otitidis; [22]) was 2.0 micrograms per milliliter and the “minimum inhibitory concentration (MIC)” value (Microbacterium otitidis; [23]) was 8.0 micrograms per milliliter. The “minimum inhibitory concentration (MIC)” value (Microbacterium otitidis; [24]) was 2.0 micrograms per milliliter.
In the case of Polymyxin B, the “minimum inhibitory concentration (MIC)” value (Microbacterium alconae; [17]) is reported as 16 micrograms per milliliter, the “minimum inhibitory concentration (MIC)” value (Microbacterium alconae; [18]) is reported as 16 micrograms per milliliter and the “minimum inhibitory concentration (MIC)” value (Microbacterium alconae; [19]) is reported as 16 micrograms per milliliter. For the same compound, the “minimum inhibitory concentration (MIC)” value (Microbacterium otitidis; [21]) was 260 micrograms per milliliter, the “minimum inhibitory concentration (MIC)” value (Microbacterium otitidis; [22]) was 260 micrograms per milliliter and the “minimum inhibitory concentration (MIC)” value (Microbacterium otitidis; [24]) was 16 micrograms per milliliter.
